Experimental data reported in patent US20080058398A1, “Compounds” (priority 2006, published 2008).
Structures can show the parent of a compound that is named as a salt.

How the values were obtained:
D3 = D3 (Homo sapiens, UniProt P35462); assay: GTPγS scintillation proximity assay (GTPγS-SPA), antagonist format; format: biochemical; conditions: higher than Enantiomer 1
Description: Functional potency and intrinsic activity of compounds of this invention can be measured by the following GTPγS scintillation proximity assay (GTPγS-SPA). Cells used in the study are Chinese Hamster Ovary (CHO) Cells.
Cell membranes are prepared as follows. Cell pellets are resuspended in 10 volumes of 50 mM HEPES, 1 mM EDTA pH 7.4, using KOH. On the day the following proteases are added to the buffer just prior to giving the homogenisation buffer.
25 ug/mL Bacitracin (Sigma B0125)−1000×stock=25 mg/mL in buffer
The cells are homogenised by 2×15 second bursts in a 1 litre Glass Waring blender in a class two biohazard cabinet. The resulting suspension is spun at 500 g for 20 mins (Beckman T21 centrifuge: 1550 rpm). The supernatant is withdrawn with a 25 mL pipette, aliquotted into pre-chilled centrifuge tubes and spun at 48,000 g to pellet membrane fragments (Beckman T1270: 23,000 rpm for 30 mins). The final 48,000 g pellet is resuspended in Homogenisation Buffer, (4× the volume of the original cell pellet). […] Protein content in the membrane preparations is evaluated with the Bradford protein assay.
The final top concentration of test drug is 3 uM in the assay and 11 points serial dilution curves 1:4 in 100% DMSO are carried out using a Biomek FX. […] Assay plates are counted on a Viewlux, 613/55 filter, for 5 min., between 2-6 hours after the final addition. […]

dopamine D3 receptors = dopamine D3 receptors (Homo sapiens, UniProt P35462); assay: affinity for dopamine receptors (D3); format: binding
Sequence of dopamine D3 receptors (P35462 whole entry): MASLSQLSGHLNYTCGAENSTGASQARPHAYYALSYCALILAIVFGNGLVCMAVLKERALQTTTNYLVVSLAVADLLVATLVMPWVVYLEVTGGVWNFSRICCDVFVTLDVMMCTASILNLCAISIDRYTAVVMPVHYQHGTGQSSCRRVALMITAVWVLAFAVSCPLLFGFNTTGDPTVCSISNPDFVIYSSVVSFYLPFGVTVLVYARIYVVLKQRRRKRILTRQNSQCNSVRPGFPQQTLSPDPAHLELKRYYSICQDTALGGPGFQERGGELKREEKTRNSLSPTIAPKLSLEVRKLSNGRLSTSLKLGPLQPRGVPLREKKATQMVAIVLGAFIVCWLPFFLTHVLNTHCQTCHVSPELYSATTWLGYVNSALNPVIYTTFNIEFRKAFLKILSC

D2 receptors = D2 receptors (Homo sapiens, UniProt P14416); assay: affinity for dopamine receptors (D2); format: binding
Sequence of D2 receptors (P14416 whole entry): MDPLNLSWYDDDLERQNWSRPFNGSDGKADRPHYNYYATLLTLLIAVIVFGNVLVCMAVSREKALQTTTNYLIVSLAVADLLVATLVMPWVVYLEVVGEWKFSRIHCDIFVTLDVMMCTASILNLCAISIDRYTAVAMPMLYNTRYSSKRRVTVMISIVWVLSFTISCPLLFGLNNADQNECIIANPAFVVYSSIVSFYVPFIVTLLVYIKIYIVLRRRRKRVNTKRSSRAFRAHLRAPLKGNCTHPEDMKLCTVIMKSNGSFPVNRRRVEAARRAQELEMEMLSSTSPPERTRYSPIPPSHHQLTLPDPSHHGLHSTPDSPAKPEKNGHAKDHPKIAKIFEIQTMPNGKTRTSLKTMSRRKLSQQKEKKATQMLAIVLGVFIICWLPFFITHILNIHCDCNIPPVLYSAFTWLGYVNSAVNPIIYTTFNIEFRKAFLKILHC

[1] = solid state accelerated stability (appearance, assay and total impurities by HPLC)
Description: The solid state accelerated condition adopted were 40° C./75% RH (Relative Humidity) closed and exposed, and 50° C./amb RH (Ambient Relative Humidity) closed under air atmosphere.
At one month time point the following samples have been analysed for the appearance, assay and total impurities.
Assay and total impurities tests have been performed by HPLC with fast gradient method.

Sequence of D3 (P35462 whole entry): as the sequence (P35462 whole entry) above

## Cc1ncoc1-c1nnc(SCCCN2C[C@@H]3C[C@]3(c3ccc(C(F)(F)F)cc3F)C2)n1C (single isomer, unassigned) [Enantiomer 2]
D3
  fpKi (D3) difference: > 1 log-unit
Dopamine D3 receptors
  affinity for dopamine D3 receptors: exhibit affinity
Dopamine D3 receptors; D3 compared with D2
  affinity for dopamine D3 versus D2 receptors: greater affinity for dopamine D3 than for D2 receptors
D2 receptors
  affinity for dopamine D2 receptors: exhibit affinity

## Cc1ncoc1-c1nnc(SCCCN2C[C@@H]3C[C@]3(c3ccc(C(F)(F)F)cc3F)C2)n1C.O=C(O)C(O)C(O)C(=O)O [Example 1, (1S,5R)-1-[2-fluoro-4-(trifluoromethyl)phenyl]-3-(3-{[4-methyl-5-(4-methyl-1,3-oxazol-5-yl)-4H-1,2,4-triazol-3-yl]thio}propyl)-3-azabicyclo[3.1.0]hexane (2R,3R) tartrate]
[1]
  stability in comparison with the hydrochloride salt: improved stability
[1]; after 1 month, at any stability condition tested
  total impurities: around 0.5 % a/a

## Cc1ncoc1-c1nnc(SCCCN2C[C@@H]3C[C@]3(c3ccc(C(F)(F)F)cc3F)C2)n1C [Preparation 7, (1S,5R)-1-[2-Fluoro-4-(trifluoromethyl)phenyl]-3-(3-{[4-methyl-5-(4-methyl-1,3-oxazol-5-yl)-4H-1,2,4-triazol-3-yl]thio}propyl)-3-azabicyclo[3.1.0]hexane hydrochloride]
[1]; at any investigated stability condition
  change of total impurities: increase of total impurities

## Cc1ncoc1-c1nnc(SCCCN2CC3CC3(c3ccc(C(F)(F)F)cc3F)C2)n1C (centres unmarked) [the tartrate, 1-[2-fluoro-4-(trifluoromethyl)phenyl]-3-(3-{[4-methyl-5-(4-methyl-1,3-oxazol-5-yl)-4H-1,2,4-triazol-3-yl]thio}propyl)-3-azabicyclo[3.1.0]hexane]
[1]
  stability in comparison with the hydrochloride salt: improved stability
